One assay deals with T1, human LXRα (Homo sapiens, UniProt Q13133).
T1 construct: biotin (biotinylated; biotinylation tag not described); made in house; host or cells: E. coli
T1 sequence (Q13133 1-447): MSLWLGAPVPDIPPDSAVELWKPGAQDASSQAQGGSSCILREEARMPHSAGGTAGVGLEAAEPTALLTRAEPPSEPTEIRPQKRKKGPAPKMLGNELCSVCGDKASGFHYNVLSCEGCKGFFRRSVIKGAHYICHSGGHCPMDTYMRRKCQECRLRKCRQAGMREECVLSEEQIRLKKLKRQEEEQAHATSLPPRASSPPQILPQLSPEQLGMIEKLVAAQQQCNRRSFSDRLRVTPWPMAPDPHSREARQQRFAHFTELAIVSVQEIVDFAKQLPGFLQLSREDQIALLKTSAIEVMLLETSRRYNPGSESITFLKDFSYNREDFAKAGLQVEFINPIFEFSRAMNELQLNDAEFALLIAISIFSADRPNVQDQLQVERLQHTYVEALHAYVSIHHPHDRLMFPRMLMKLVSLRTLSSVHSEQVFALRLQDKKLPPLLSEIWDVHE
In words: Ligand-binding test procedure for human LXRα (3H T0901317 competition, flash plates). The note with it: biotinylated hLXRα, tracer 3H T0901317. Here is the method: Ligand-Binding Test Procedure for Human LXRα.
Receptor source: E. coli extract from cells expressing biotinylated hLXRα. Extract was made in a similar buffer as above, but with 50 mM TRIS.
(§1) Washed streptavidin and coated flash plates with wash buffer.
(§2) Diluted receptor extract to give Bmax ˜4000 cpm and add to the wells.
(§3) Wrapped the plates in aluminum foil and stored them at +4° C. over night.
(§4) Made a dilution series in DMSO of the test ligands.
(§5) Made a 5 nM solution of the radioactive tracer in buffer.
(§6) Mixed 250 μl diluted tracer with 5 μl of the test ligand from each concentration of the dilution series.
(§7) Washed the receptor-coated flash plates.
(§8) Added 200 μl per well of the ligand/radiolabel mixture to the receptor-coated flash plates.
(§9) Wrapped the plates in aluminum foil and incubate at +4° C. over night.
(§10) Aspirated wells, and wash the flashed plates. Sealed the plate.
(§11) Measured the remaining radioactivity in the plate.

The target of the next assay is T2, human LXRβ (Homo sapiens, UniProt P55055).
T2 construct: biotin (biotinylated; biotinylation tag not described); made in house; host or cells: E. coli
T2 sequence (P55055 1-460): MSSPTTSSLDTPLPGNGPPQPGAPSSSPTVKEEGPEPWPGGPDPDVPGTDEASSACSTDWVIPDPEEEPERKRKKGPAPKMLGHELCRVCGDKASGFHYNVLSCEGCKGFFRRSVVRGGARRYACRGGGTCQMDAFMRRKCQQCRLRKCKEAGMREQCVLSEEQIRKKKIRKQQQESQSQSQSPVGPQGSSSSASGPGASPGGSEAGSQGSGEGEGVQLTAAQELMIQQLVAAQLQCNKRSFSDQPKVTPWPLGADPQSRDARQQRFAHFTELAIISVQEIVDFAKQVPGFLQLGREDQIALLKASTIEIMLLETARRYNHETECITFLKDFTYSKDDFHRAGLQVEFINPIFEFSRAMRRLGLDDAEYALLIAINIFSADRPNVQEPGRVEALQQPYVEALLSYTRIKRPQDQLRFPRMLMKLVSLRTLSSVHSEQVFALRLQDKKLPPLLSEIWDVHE
In words: Ligand-binding test procedure for human LXRβ (3H T0901317 competition, flash plates). Conditions: for Binding ratio a/b: IC50 (μM) LXRα binding/IC50 (μM) LXRβ binding; for IC50: biotinylated hLXRβ, tracer 3H T0901317. The method, then: Ligand-Binding Test Procedure for Human LXRβ.
Receptor source: E. coli extract from cells expressing biotinylated hLXRβ. Extract was made in a similar buffer as above, but with 50 mM TRIS.
as §1, §2, §3, §4, §5, §6, §7, §8, §9, §10, §11

The term IC50 denotes the concentration needed to halve the response being measured. Lower therefore signals inhibition by little substance.

Regarding `O=C(O)Cc1cccc(NCc2cccc(-c3c(Cc4ccccc4)cnc4c(C(F)(F)F)cccc34)c2)c1` [Example 30, [3-({3-[3-benzyl-8-(trifluoromethyl)quinolin-4-yl]benzyl}amino)phenyl]acetic acid], the IC50 at human LXRα is 72 nM. In addition, at human LXRβ, the Binding ratio a/b is on record as 8 and the 50% inhibitory concentration (IC50) amounted to 9 nM.
On to `O=C(O)c1cccc2c(NCc3cncc(-c4c(Cc5ccccc5)cnc5c(C(F)(F)F)cccc45)c3)cccc12` [Example 31, 5-[({5-[3-benzyl-8-(trifluoromethyl)quinolin-4-yl]pyridin-3-yl}methyl)amino]-1-naphthoic acid], for which the figures for the concentration for half-maximal inhibition (IC50) on human LXRα and at human LXRβ were 1740 nM and 210 nM, respectively. For the same molecule, the Binding ratio a/b at human LXRβ came out at 8.
`Cc1cc(NCc2ccsc2-c2c(Cc3ccccc3)cnc3c(C(F)(F)F)cccc23)c(C)cc1CC(=O)O` [Example 32, {4-[({2-[3-benzyl-8-(trifluoromethyl)quinolin-4-yl]-3-thienyl}methyl)amino]-2,5-dimethylphenyl}acetic acid] gave an IC50 on human LXRα of 3330 nM. On human LXRβ, the Binding ratio a/b is 8 and the IC50 came out at 427 nM.
Regarding `Cc1ccc(C(=O)O)c(NCc2cccc(-c3c(Cc4ccccc4)cnc4c(C(F)(F)F)cccc34)c2)c1` [Example 33, 2-({3-[3-benzyl-8-(trifluoromethyl)quinolin-4-yl]benzyl}amino)-4-methylbenzoic acid], the IC50 on human LXRα was 1290 nM; at human LXRβ it was 166 nM. For the same molecule, the Binding ratio a/b at human LXRβ was determined as 8.
The matching figures for `Cc1ccc(CC(=O)O)c(NCc2cccc(-c3c(Cc4ccccc4)cnc4c(C(F)(F)F)cccc34)c2)c1C` [Example 35, [2-({3-[3-benzyl-8-(trifluoromethyl)quinolin-4-yl]benzyl}amino)-3,4-dimethylphenyl]acetic acid]: 961 nM, 131 nM and 7.
On human LXRα, `O=C(O)Cc1ccc(NCc2cncc(-c3c(Cc4ccccc4)cnc4c(C(F)(F)F)cccc34)c2)cc1` [Example 36, {4-[({5-[3-benzyl-8-(trifluoromethyl)quinolin-4-yl]pyridin-3-yl}methyl)amino]phenyl}acetic acid] returned an IC50 of 1360 nM. Besides, at human LXRβ, the Binding ratio a/b is recorded as 7 and the IC50 was 191 nM.
Consider `O=C(O)CC1CCCc2c(OCc3cccc(-c4c(Cc5ccccc5)cnc5c(C(F)(F)F)cccc45)c3)cccc21` (stereo not drawn) [Example 37, [5-({3-[3-benzyl-8-(trifluoromethyl)quinolin-4-yl]benzyl}oxy)-1,2,3,4-tetrahydronaphthalen-1-yl]acetic acid], for which the half-maximal inhibitory concentration (IC50) on human LXRα came to 131 nM. Also, on human LXRβ, the Binding ratio a/b is given as 7 and the 50% inhibitory concentration (IC50) was determined as 19 nM.
On to `O=C(O)CC1CCc2c(OCc3cccc(-c4c(Cc5ccccc5)cnc5c(C(F)(F)F)cccc45)c3)cccc21` (stereo not drawn) [Example 38, [4-({3-[3-benzyl-8-(trifluoromethyl)quinolin-4-yl]benzyl}oxy)-2,3-dihydro-1H-inden-1-yl]acetic acid], for which the IC50 is 51 nM on human LXRα and 8 nM on human LXRβ. In addition, the Binding ratio a/b on human LXRβ came out at 7.
Turning to `O=C(O)c1ccc2cc(OCc3cccc(-c4c(Cc5ccccc5)cnc5c(C(F)(F)F)cccc45)c3)ccc2c1` [Example 39, 6-({3-[3-benzyl-8-(trifluoromethyl)quinolin-4-yl]benzyl}oxy)-2-naphthoic acid], the IC50 on human LXRα was determined as 683 nM. For the same molecule, at human LXRβ, the Binding ratio a/b is listed as 7 and the IC50 stood at 101 nM.
Consider `O=C(O)C1CCN(C(=O)c2cccc(COc3cccc(-c4c(Cc5ccccc5)cnc5c(C(F)(F)F)cccc45)c3)c2)CC1` [Example 40, 1-[3-({3-[3-benzyl-8-(trifluoromethyl)quinolin-4-yl]phenoxy}methyl)benzoyl]piperidine-4-carboxylic acid], for which the IC50 on human LXRα came out at 559 nM. On human LXRβ, the Binding ratio a/b is on record as 7 and the IC50 turned out to be 84 nM.
With `O=C(O)c1ccc(F)cc1NCc1cccc(-c2c(Cc3ccccc3)cnc3c(C(F)(F)F)cccc23)c1` [Example 41, 2-({3-[3-benzyl-8-(trifluoromethyl)quinolin-4-yl]benzyl}amino)-4-fluorobenzoic acid], the values for the IC50 on human LXRα and on human LXRβ were 331 nM and 50 nM, respectively. For the same molecule, at human LXRβ, the Binding ratio a/b is recorded as 7.
Consider `O=C(O)CCc1cccc(NCc2cccc(-c3c(Cc4ccccc4)cnc4c(C(F)(F)F)cccc34)c2)c1` [Example 43, 3-[3-({3-[3-benzyl-8-(trifluoromethyl)quinolin-4-yl]benzyl}amino)phenyl]propanoic acid], for which the values for the IC50 on human LXRα and at human LXRβ were 15 nM and 2 nM, respectively. For the same molecule, the Binding ratio a/b on human LXRβ is 6.
Regarding `Cn1cc(C(=O)O)c2cccc(NCc3cccc(-c4c(Cc5ccccc5)cnc5c(C(F)(F)F)cccc45)c3)c21` [Example 44, 7-({3-[3-benzyl-8-(trifluoromethyl)quinolin-4-yl]benzyl}amino)-1-methyl-1H-indole-3-carboxylic acid], the IC50 on human LXRα was 1050 nM; at human LXRβ, 165 nM. In addition, on human LXRβ, the Binding ratio a/b was 6.
In the case of `COc1cc(C(=O)O)ccc1OCc1cccc(-c2c(Cc3ccccc3)cnc3c(C(F)(F)F)cccc23)c1` [Example 45, 4-({3-[3-benzyl-8-(trifluoromethyl)quinolin-4-yl]benzyl}oxy)-3-methoxybenzoic acid], the IC50 at human LXRα came out at 2260 nM. In addition, at human LXRβ, the Binding ratio a/b worked out at 6 and the IC50 amounted to 358 nM.
The matching figures for `O=C(O)c1ccc2cc(NCc3cccc(-c4ccnc5c(C(F)(F)F)cccc45)c3)ccc2c1` [Example 46, 6-({3-[8-(trifluoromethyl)quinolin-4-yl]benzyl}amino)-2-naphthoic acid]: 8000 nM, 6 and 1300 nM.
The matching figures for `Cc1cc(NCc2ccc(-c3c(Cc4ccccc4)cnc4c(C(F)(F)F)cccc34)s2)c(C)cc1CC(=O)O` [Example 47, {4-[({5-[3-benzyl-8-(trifluoromethyl)quinolin-4-yl]-2-thienyl}methyl)amino]-2,5-dimethylphenyl}acetic acid]: 13 nM, 6 and 2 nM.
The like results for `O=C(O)c1cccc2c(NCc3cccc(-c4ccnc5c(C(F)(F)F)cccc45)c3)cccc12` [Example 48, 5-({3-[8-(trifluoromethyl)quinolin-4-yl]benzyl}amino)-1-naphthoic acid] were, in that order, 3270 nM, 6 and 538 nM.
Regarding `O=C(O)c1c(NCc2cccc(-c3c(Cc4ccccc4)cnc4c(C(F)(F)F)cccc34)c2)cccc1C(F)(F)F` [Example 49, 2-({3-[3-benzyl-8-(trifluoromethyl)quinolin-4-yl]benzyl}amino)-6-(trifluoromethyl)benzoic acid], the IC50 was 393 nM at human LXRα and 66 nM at human LXRβ. Further, the Binding ratio a/b at human LXRβ turned out to be 6.
At human LXRα, `O=C(O)Cc1ccc(NCc2cccc(-c3c(Cc4ccccc4)cnc4c(C(F)(F)F)cccc34)c2)cc1Cl` [Example 50, [4-({3-[3-benzyl-8-(trifluoromethyl)quinolin-4-yl]benzyl}amino)-2-chlorophenyl]acetic acid] showed an IC50 of 20 nM. For the same molecule, at human LXRβ, the Binding ratio a/b is 6 and the IC50 is 4 nM.
Turning to `O=C(O)c1cccc(NCc2cccc(-c3c(Cc4ccccc4)cnc4c(C(F)(F)F)cccc34)c2)c1` [Example 51, 3-({3-[3-benzyl-8-(trifluoromethyl)quinolin-4-yl]benzyl}amino)benzoic acid], the IC50 was 1170 nM on human LXRα and 209 nM on human LXRβ. The Binding ratio a/b at human LXRβ is reported as 6.
With `O=C(O)c1ccc(F)c(NCc2cccc(-c3c(Cc4ccccc4)cnc4c(C(F)(F)F)cccc34)c2)c1` [Example 52, 3-({3-[3-benzyl-8-(trifluoromethyl)quinolin-4-yl]benzyl}amino)-4-fluorobenzoic acid], the IC50 on human LXRα is 1380 nM; on human LXRβ, 249 nM. In addition, the Binding ratio a/b at human LXRβ is listed as 6.

Source of the values: patent publication US20090069373A1, “Quinoline Acids” (Wyeth, priority 2007, published 2009).
